Measured values from patent publication US10316017B2, “COT modulators and methods of use thereof” (Gilead Sciences, Inc., priority 2015, dated 2019).

Columns and labels:
[1] = molecular target: T1, human Cot catalytic domain (30-397 amino acids) (Homo sapiens, UniProt P41279); assay: High Throughput Cot Biochemical Assay (KinEASE TR-FRET); conditions: Cot KinEASE TR-FRET, 400 μM ATP; read-out: IC50 HTRF
T1 construct: Purified recombinant human Cot catalytic domain (30-397 amino acids) was purchased from Cama Biosciences; purchased Cama Biosciences (so in the source)
How it was run: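 Phosphorylation of 1 μM XL665-STK3 peptide by 5 nM Cot catalytic domain was measured by time-resolved FRET using a europium […] antibody. ATP was 400 μM; buffer was 10 mM MOPS pH 7.0 with Mg2+ and DTT.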

[2] = system: TNFα production in LPS-stimulated human monocytes; assay: Cot Monocyte TNFα Cell Based Assay; conditions: Homo sapiens, Monocyte, LPS-stimulated human monocytes, TNFα TR-FRET; read-out: EC50 TNF
How it was run: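 Percent-of-control values derive from TR-FRET ratios of TNFα in spun-down media, referenced to unstimulated and LPS-stimulated wells. Exposure: 1 h compound preincubation, then 50 pg/ml LPS for 4 h, both at 37 °C, with 0.5% final DMSO.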

T1 sequence (P41279 30-397): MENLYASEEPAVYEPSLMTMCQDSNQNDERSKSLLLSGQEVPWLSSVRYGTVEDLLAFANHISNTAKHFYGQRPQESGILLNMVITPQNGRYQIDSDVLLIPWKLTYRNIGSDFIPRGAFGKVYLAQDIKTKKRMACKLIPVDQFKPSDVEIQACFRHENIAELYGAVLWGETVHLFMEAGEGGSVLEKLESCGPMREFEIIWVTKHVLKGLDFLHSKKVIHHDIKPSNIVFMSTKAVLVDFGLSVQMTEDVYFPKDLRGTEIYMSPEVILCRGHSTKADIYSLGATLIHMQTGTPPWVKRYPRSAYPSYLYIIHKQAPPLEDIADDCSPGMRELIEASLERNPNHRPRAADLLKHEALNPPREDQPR

| IC50 [1] [nM] | EC50 [2] [nM] | SMILES |
| --- | --- | --- |
| 5 | 82 | [2H][C@](Nc1cc(C#N)c2ncc(C#N)c(NCC(C)(C)C)c2c1)(c1cn(C2(C#N)CC2)nn1)c1ccccc1Cl [Example 1030, 6-(((2-chlorophenyl)(1-(1-cyanocyclopropyl)-1H-1,2,3-triazol-4-yl)methyl-d)amino)-4-(neopentylamino)quinoline-3,8-dicarbonitrile] |
| 1 | 118 | CC(C)(C)CNc1c(C#N)cnc2c(Cl)cc(N[C@@H](c3cccc(-n4cncn4)c3)c3cn(C4CC4)nn3)cc12 [Example 1031, (S)-6-(((3-(1H-1,2,4-triazol-1-yl)phenyl)(1-cyclopropyl-1H-1,2,3-triazol-4-yl)methyl)amino)-8-chloro-4-(neopentylamino)quinoline-3-carbonitrile] |
| 1 | 161 | CC(C)(C)CNc1c(C#N)cnc2c(Cl)cc(N[C@@H](c3cccc(-n4ccnc4)c3)c3cn(C4CC4)nn3)cc12 [Example 1032, (S)-6-(((3-(1H-imidazol-1-yl)phenyl)(1-cyclopropyl-1H-1,2,3-triazol-4-yl)methyl)amino)-8-chloro-4-(neopentylamino)quinoline-3-carbonitrile] |
| 2 | 456 | CC(C)(C)CNc1c(C#N)cnc2c(Cl)cc(N[C@@H](c3cccc(-n4cccn4)c3)c3cn(C4CC4)nn3)cc12 [Example 1033, (S)-6-(((3-(1H-pyrazol-1-yl)phenyl)(1-cyclopropyl-1H-1,2,3-triazol-4-yl)methyl)amino)-8-chloro-4-(neopentylamino)quinoline-3-carbonitrile] |
| 4 | 93 | [2H][C@](Nc1cc(C#N)c2ncc(C#N)c(NC3CCCC3(C)C)c2c1)(c1ccc(F)cc1)c1cn(C2CC2)nn1 (stereo partly drawn) [Example 1034, 6-(((S)-(1-cyclopropyl-1H-1,2,3-triazol-4-yl)(4-fluorophenyl)methyl-d)amino)-4-((2,2-dimethylcyclopentyl)amino) quinoline-3,8-dicarbonitrile] |
| 19 | 316 | CC(C)(CO)CNc1c(C#N)cnc2c(C#N)cc(N[C@H](c3cn(C4(C)CC4)nn3)c3ccccc3Cl)cc12 [Example 1035, (S)-6-(((2-chlorophenyl)(1-(1-methylcyclopropyl)-1H-1,2,3-triazol-4-yl)methyl)amino)-4-((3-hydroxy-2,2-dimethylpropyl)amino)quinoline-3,8-dicarbonitrile] |
| 9 | 195 | CC(C)(C)CNc1c(C#N)cnc2c(C#N)cc(N[C@H](c3cn(C4(CF)CC4)nn3)c3ccccc3Cl)cc12 [Example 1036, (S)-6-(((2-chlorophenyl)(1-(1-(fluoromethyl)cyclopropyl)-1H-1,2,3-triazol-4-yl)methyl)amino)-4-(neopentylamino)quinoline-3,8-dicarbonitrile] |
| 102 | ≥ 1000 | CC(C)(C)CNc1c(C#N)cnc2c(-c3cncnc3)cc(N[C@H](c3cn(C4(C)CC4)nn3)c3ccccc3Cl)cc12 [Example 1037, (S)-6-(((2-chlorophenyl)(1-(1-methylcyclopropyl)-1H-1,2,3-triazol-4-yl)methyl)amino)-4-(neopentylamino)-8-(pyrimidin-5-yl)quinoline-3-carbonitrile] |
| 10 | 566 | Cc1c([C@H](Nc2cc(Cl)c3ncc(C#N)c(NCC(C)(C)C)c3c2)c2cn(C3(C(F)(F)F)CC3)nn2)cccc1-n1cccn1 [Example 1038, (S)-8-chloro-6-(((2-methyl-3-(1H-pyrazol-1-yl)phenyl)(1-(1-(trifluoromethyl)cyclopropyl)-1H-1,2,3-triazo1-4-yl)methyl)amino)-4-(neopentylamino)quinoline-3-carbonitrile] |
| 19 | 496 | Cc1c([C@H](Nc2cc(Cl)c3ncc(C#N)c(NCC(C)(C)C)c3c2)c2cn(C3(C(F)(F)F)CC3)nn2)cccc1-n1nccn1 [Example 1039, (S)-8-chloro-6-(((2-methyl-3-(2H-1,2,3-triazol-2-yl)phenyl)(1-(1-(trifluoromethyl)cyclopropyl)-1H-1,2,3-triazol-4-yl)methyl)amino)-4-(neopentylamino)quinoline-3-carbonitrile] |
| 4 | 87 | Cc1c([C@H](Nc2cc(Cl)c3ncc(C#N)c(NCC(C)(C)C)c3c2)c2cn(C3(C(F)(F)F)CC3)nn2)cccc1-n1cncn1 [Example 1040, (S)-8-chloro-6-(((2-methyl-3-(1H-1,2,4-triazol-1-yl)phenyl)(1-(1-(trifluoromethyl)cyclopropyl)-1H-1,2,3-triazol-4-yl)methyl)amino)-4-(neopentylamino)quinoline-3-carbonitrile] |
| 4 | 86 | Cc1c([C@H](Nc2cc(Cl)c3ncc(C#N)c(NCC(C)(C)C)c3c2)c2cn(C3(C(F)(F)F)CC3)nn2)cccc1-n1ccnc1 [Example 1041, (S)-6-(((3-(1H-imidazol-1-yl)-2-methylphenyl)(1-(1-(trifluoromethyl)cyclopropyl)-1H-1,2,3-triazol-4-yl)methyl)amino)-8-chloro-4-(neopentylamino)quinoline-3-carbonitrile] |
| 2 | 105 | Cc1c([C@H](Nc2cc(C#N)c3ncc(C#N)c(NCC(C)(C)C)c3c2)c2cn(C3(C(F)(F)F)CC3)nn2)cccc1-n1ccnc1 [Example 1042] |
| 3 | 110 | Cc1c([C@H](Nc2cc(C#N)c3ncc(C#N)c(NCC(C)(C)C)c3c2)c2cn(C3(C(F)(F)F)CC3)nn2)cccc1-n1cncn1 [Example 1043, (S)-6-(((2-methyl-3-(1H-1,2,4-triazol-1-yl)phenyl)(1-(1-(trifluoromethyl)cyclopropyl)-1H-1,2,3-triazol-4-yl)methyl)amino)-4-(neopentylamino)quinoline-3,8-dicarbonitrile] |
| 8 | 214 | Cc1c([C@H](Nc2cc(C#N)c3ncc(C#N)c(NCC(C)(C)C)c3c2)c2cn(C3(C(F)(F)F)CC3)nn2)cccc1-n1nccn1 [Example 1044, (S)-6-(((2-methyl-3-(2H-1,2,3-triazol-2-yl)phenyl)(1-(1-(trifluoromethyl)cyclopropyl)-1H-1,2,3-triazol-4-yl)methyl)amino)-4-(neopentylamino)quinoline-3,8-dicarbonitrile] |
| 5 | 268 | Cc1c([C@H](Nc2cc(C#N)c3ncc(C#N)c(NCC(C)(C)C)c3c2)c2cn(C3(C(F)(F)F)CC3)nn2)cccc1-n1cccn1 [Example 1045, (S)-6-(((2-methyl-3-(1H-pyrazol-1-yl)phenyl)(1-(1-(trifluoromethyl)cyclopropyl)-1H-1,2,3-triazol-4-yl)methyl)amino)-4-(neopentylamino)quinoline-3,8-dicarbonitrile] |
| 142 | ≥ 1000 | [2H]c1c([C@@]([2H])(Nc2cc(Cl)c3ncc(C#N)c(NCC(C)(C)C)c3c2)c2c(F)cccc2Cl)nnn1C1(C)CC1 [Example 1046, (S)-8-chloro-6-(((2-chloro-6-fluorophenyl)(1-(1-methylcyclopropyl)-1H-1,2,3-triazol-4-yl-5-d)methyl-d)amino)-4-(neopentylamino)quinoline-3-carbonitrile] |
| 101 | ≥ 1000 | [2H][C@@](Nc1cc(Cl)c2ncc(C#N)c(NCC(C)(C)C)c2c1)(c1cn(C2(C)CC2)nn1)c1c(F)cccc1Cl [Example 1047, (S)-8-chloro-6-(((2-chloro-6-fluorophenyl)(1-(1-methylcyclopropyl)-1H-1,2,3-triazol-4-yl)methyl-d)amino)-4-(neopentylamino)quinoline-3-carbonitrile] |
| 33 | 637 | [2H]c1c([C@@]([2H])(Nc2cc(C#N)c3ncc(C#N)c(NCC(C)(C)C)c3c2)c2c(F)cccc2Cl)nnn1C1(C)CC1 [Example 1048, (S)-6-(((2-chloro-6-fluorophenyl)(1-(1-methylcyclopropyl)-1H-1,2,3-triazol-4-yl-5-d)methyl-d)amino)-4-(neopentylamino)quinoline-3,8-dicarbonitrile] |
| 2 | 35 | Cc1c([C@H](Nc2cc(Cl)c3ncc(C#N)c(NCC(C)(C)C)c3c2)c2cn(C3(C(F)F)CC3)nn2)cccc1-n1cncn1 [Example 1049, (S)-8-chloro-6-(((1-(1-(difluoromethyl)cyclopropyl)-1H-1,2,3-triazol-4-yl)(2-methyl-3-(1H-1,2,4-triazol-1-yl)phenyl)methyl)amino)-4-(neopentylamino)quinoline-3-carbonitrile] |
| 7 | 202 | Cc1c(-c2ncco2)cccc1[C@H](Nc1cc(Cl)c2ncc(C#N)c(NCC(C)(C)C)c2c1)c1cn(C2(C(F)(F)F)CC2)nn1 [Example 1050, (S)-8-chloro-6-(((2-methyl-3-(oxazol-2-yl)phenyl)(1-(1-(trifluoromethyl)cyclopropyl)-1H-1,2,3-triazol-4-yl)methyl)amino)-4-(neopentylamino)quinoline-3-carbonitrile] |
| 4 | 163 | Cc1c(-c2ncco2)cccc1[C@H](Nc1cc(Cl)c2ncc(C#N)c(NCC(C)(C)C)c2c1)c1cn(C2(C(F)F)CC2)nn1 [Example 1051, (S)-8-chloro-6-(((1-(1-(difluoromethyl)cyclopropyl)-1H-1,2,3-triazol-4-yl)(2-methyl-3-(oxazol-2-yl)phenyl)methyl)amino)-4-(neopentylamino)quinoline-3-carbonitrile] |
